Conditions: Liquid, Closed cell (Static) method

FC(F)CC(F)(F)F [1,1,1,3,3-pentafluoropropane]
Conditions | vapor or sublimation pressure [kPa]
260.32 K | 28.52
272.13 K | 50.91
281.15 K | 75.62
293.31 K | 122.98
305.49 K | 192.78
313.62 K | 254.28
321.4 K | 324.38
333.49 K | 467.72
345.16 K | 642.26
351.47 K | 754.32
364 K | 1028.2
377.04 K | 1378.2

C=C(Cl)C(F)(F)F [2-chloro-3,3,3-trifluoro-1-propene]
Conditions | vapor or sublimation pressure [kPa]
263.25 K | 43.43
264.27 K | 45.2
265.23 K | 47.13
266.27 K | 48.88
267.16 K | 51.02
267.22 K | 50.69
268.2 K | 52.65
269.08 K | 55.2
270.04 K | 57.24
270.94 K | 59.24
270.95 K | 59.34
271.9 K | 61.45
273.85 K | 66.42
274.8 K | 68.69
275.39 K | 70.68
277.03 K | 75.24
277.96 K | 77.86
278.77 K | 80.2
278.99 K | 81.33
279.8 K | 83.72
280.56 K | 85.87
281.62 K | 89.39
282.8 K | 93.36
283.65 K | 95.62
284.51 K | 98.59
285.1 K | 100.84
286.15 K | 103.78
287.18 K | 107.59
288.59 K | 113.2
289.24 K | 115.72
290.31 K | 120.08
292.2 K | 128.29
294.48 K | 138.49
296.12 K | 146.32
297.41 K | 152.85
298.46 K | 158.2
299.53 K | 164.03
300.22 K | 167.73
301.38 K | 174.15
303.03 K | 183.59
304.22 K | 191.32
305.36 K | 198.32
306.37 K | 205.25
307.38 K | 212.61
308.45 K | 219.76
309.44 K | 226.88
311.14 K | 239.23
312.65 K | 250.71
313.32 K | 255.58
314.65 K | 265.41
315.41 K | 271.67
316.41 K | 279.99
317.54 K | 288.86
318.54 K | 296.49
319.54 K | 305.35
320.2 K | 312.84
321.51 K | 323.9
322.28 K | 330.9
322.39 K | 331.79
323.27 K | 340.55
324.4 K | 351.13
325.16 K | 359.71
326.17 K | 370.1
327.54 K | 383.61
328.16 K | 390.36
329.38 K | 402.72
330.27 K | 412.59
331.36 K | 424.58
332.28 K | 434.81
333.1 K | 444.59
333.37 K | 447.55
334.34 K | 462.26
335.18 K | 468.47
336.2 K | 480.83
337.33 K | 494.73
338.3 K | 506.41
339.24 K | 518.13
340.43 K | 533.53
341.35 K | 545.17
342.25 K | 558.82
342.53 K | 561.23
344.38 K | 589.61
345.78 K | 613.34
346.77 K | 629.58
347.88 K | 646.33
348.77 K | 660.14
349.98 K | 679.92
350.86 K | 695.77
352.84 K | 728.61
354.89 K | 762.84
356.87 K | 799.73
358.89 K | 838.22
360.78 K | 874.39
362.63 K | 916.57
364.64 K | 957.2
366.88 K | 1003.7
368.89 K | 1047.8
370.88 K | 1093
372.9 K | 1138.9

Source: the NIST ThermoML archive (doi:10.1021/je400407z)
